Experimental data as given in article PMC4372254, “Unlocking the Diversity of Alkaloids in Catharanthus roseus: Nuclear Localization Suggests Metabolic Channeling in Secondary Metabolism” (Chemistry & Biology, 2015).

Experiments:
[1] = target: T1, THAS (tetrahydroalstonine synthase) (Catharanthus roseus, UniProt A0A0F6SD02); experiment: isothermal titration calorimetry; assay type: binding
T1 construct: His-tagged, vector pOPINF, expressed in E. coli Rosetta 2 pLysS, HisTrap purified
T1 sequence (A0A0F6SD02 1-356): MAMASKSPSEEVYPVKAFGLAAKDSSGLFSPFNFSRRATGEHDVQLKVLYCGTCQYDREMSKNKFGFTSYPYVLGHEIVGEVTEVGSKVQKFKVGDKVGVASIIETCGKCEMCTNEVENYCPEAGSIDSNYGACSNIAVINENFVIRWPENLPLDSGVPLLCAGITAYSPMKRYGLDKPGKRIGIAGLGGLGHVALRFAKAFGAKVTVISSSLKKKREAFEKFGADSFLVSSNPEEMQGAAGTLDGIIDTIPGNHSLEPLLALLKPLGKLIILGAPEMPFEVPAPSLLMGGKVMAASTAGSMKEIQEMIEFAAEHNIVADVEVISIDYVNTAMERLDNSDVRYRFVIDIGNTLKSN

[2] = target: T2, SGD (strictosidine glucosidase) (Catharanthus roseus, UniProt Q9M7N7); experiment: in situ deglycosylation, […] min incubation; assay type: biochemical; details: strictosidine aglycone formed
T2 construct: recombinant, purified as THAS, expression system of Yerkes et al. 2008

Structure (SMILES)	Kd [1]	in situ deglycosylation, 10 min incubation [2]
NC(=O)C1=CN([C@@H]2O[C@H](COP(=O)(O)OP(=O)(O)OC[C@H]3O[C@@H](n4cnc5c(N)ncnc54)[C@H](OP(=O)(O)O)[C@@H]3O)[C@@H](O)[C@H]2O)C=CC1 [NADPH]	1500 ± 100 nM	–
C=C[C@H]1[C@H](O[C@@H]2O[C@H](CO)[C@@H](O)[C@H](O)[C@H]2O)OC=C(C(=O)OC)[C@H]1C[C@@H]1NCCc2c1[nH]c1ccccc21 [strictosidine]	–	strictosidine was completely converted to the aglycone
